Values quoted from earlier work in patent US20050065094A1, “Use of telmisartan for the prevention and treatment of vascular headache” (Boehringer Ingelheim International GmbH, priority 2003, published 2005).

Tests used:
[1] = tested on: patients suffering from migraine; details: placebo-controlled crossover
[2] = tested on: patients having mild/moderate hypertension; details: placebo-controlled

| Structure (SMILES) | tolerability profile [1] | incidence of headache [2] |
| --- | --- | --- |
| CCOc1nc2cccc(C(=O)O)c2n1Cc1ccc(-c2ccccc2-c2nnn[nH]2)cc1 [candesartan] | good tolerability profile | – |
| CCCCC1=NC2(CCCC2)C(=O)N1Cc1ccc(-c2ccccc2-c2nnn[nH]2)cc1 [irbesartan] | – | significant reduction in the incidence of headache |
